According to patent publication US11058688B2, “Imidazopiperazine inhibitors of transcription activating proteins” (Board of Regents, The University of Texas System, priority 2018, dated 2021):

Legend:
[1] = molecular target: GST-CBP(1081-1197) bromodomain (Homo sapiens (Human), UniProt Q92793); experiment: CBP AlphaScreen Assay; settings: binding to biotin-H4(1-21) Ac-K5/8/12/16 peptide
Description: (§1) Specific binding of the CBP or BRD4 bromodomain to the acetylated peptide derived from the H4 histone substrate (tetra acetylated H4(1-21) Ac-K5/8/12/16) was measured in absence or presence of inhibitors.
(§2) The standard dose response curves were fitted by Genedata Screener software using the variable-slope model: Signal=Signalnegative control+(SignalDMSO control−Signalnegative control)/(1+(IC50/Dose)^Hill slope).
(§3) Only Signal and Dose in the equation were treated as known values.

BRD4(49-170) bromodomain = BRD4(49-170) bromodomain (Homo sapiens (Human), UniProt O60885); experiment: BRD4 AlphaScreen Assay; settings: binding to biotin-H4(1-21) Ac-K5/8/12/16 peptide
Description: as §1, §2, §3

Sequence of GST-CBP(1081-1197) bromodomain (Q92793 1081-1197): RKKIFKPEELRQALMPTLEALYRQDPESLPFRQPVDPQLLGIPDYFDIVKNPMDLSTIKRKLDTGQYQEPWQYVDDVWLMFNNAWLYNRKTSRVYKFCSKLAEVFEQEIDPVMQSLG

Row | SMILES | IC50 [1] [nM] | IC50 (BRD4(49-170) bromodomain) [nM]
1 | CNC(=O)N1CCn2c(C3CCOC3)nc(-c3ccc4c(c3)c(-c3cnn(C)c3)nn4C)c2C1 (centres unmarked) [Example 6, N-Methyl-1-(1-methyl-3-(1-methyl-1H-pyrazol-4-yl)-1H-indazol-5-yl)-3-(tetrahydrofuran-3-yl)-5,6-dihydroimidazo[1,5-a]pyrazine-7(8H)-carboxamide] | 24 | 8210
2 | CNC(=O)N1CCn2c(C3CCC(F)(F)C3)nc(-c3cccc4nc(-c5cnn(C)c5)c(C(F)F)cc34)c2C1 (centres unmarked) [Example 61, 3-(3,3-difluorocyclopentyl)-1-(3-(difluoromethyl)-2-(1-methyl-1H-pyrazol-4-yl)quinolin-5-yl)-N-methyl-5,6-dihydroimidazo[1,5-a]pyrazine-7(8H)-carboxamide] | 25 | 13900
3 | CNC(=O)N1CCn2c(C3CCC(F)(F)CC3)nc(-c3c(F)ccc4cc(-c5cnc(C)s5)ncc34)c2C1 [Example 93, 3-(4,4-difluorocyclohexyl)-1-(7-fluoro-3-(2-methylthiazol-5-yl)isoquinolin-8-yl)-N-methyl-5,6-dihydroimidazo[1,5-a]pyrazine-7(8H)-carboxamide] | 2 | > 25000
4 | CC(=O)N1CCn2cnc(-c3ccc4c(c3)c(-c3cnn(C)c3)nn4C)c2C1 [Example 10, 1-(1-(1-Methyl-3-(1-methyl-1H-pyrazol-4-yl)-1H-indazol-5-yl)-5,6-dihydroimidazo[1,5-a]pyrazin-7(8H)-yl)ethanone] | 197 | > 10000
5 | CC(=O)N1CCn2c(C3CN(C(C)=O)C3)nc(-c3ccc4c(c3)c(-c3cnn(C)c3)nn4C)c2C1 [Example 12, 1-(3-(7-Acetyl-1-(1-methyl-3-(1-methyl-1H-pyrazol-4-yl)-1H-indazol-5-yl)-5,6,7,8-tetrahydroimidazo[1,5-a]pyrazin-3-yl)azetidin-1-yl)ethan-1-one] | – | > 10000
6 | COC(=O)N1CCn2c(C3CCOC3)nc(-c3ccc4c(c3)c(-c3cnn(C)c3)nn4C)c2C1 (centres unmarked) [Example 5, Methyl 1-(1-methyl-3-(1-methyl-1H-pyrazol-4-yl)-1H-indazol-5-yl)-3-(tetrahydrofuran-3-yl)-5,6-dihydroimidazo[1,5-a]pyrazine-7(8H)-carboxylate] | – | 13900

More lines, in order of falling IC50 [1], values ahead:

Row | IC50 [1] [nM] | IC50 (BRD4(49-170) bromodomain) [nM] | SMILES
7 | 739 | > 25000 | CNC(=O)c1cc(-c2ccc3c(c2)CCCN3c2nc(C3CC3)n3c2CN(C(C)=O)CC3)ccn1 [Example 117, 4-(1-(7-acetyl-3-cyclopropyl-5,6,7,8-tetrahydroimidazo[1,5-a]pyrazin-1-yl)-1,2,3,4-tetrahydroquinolin-6-yl)-N-methylpicolinamide]
8 | 147 | > 25000 | CC(=O)N1CCn2c(C3CCOC3)nc(-c3cc4c(-c5cnn(C)c5)nn(C)c4cc3F)c2C1 (centres unmarked) [Example 103, 1-(1-(6-fluoro-1-methyl-3-(1-methyl-1H-pyrazol-4-yl)-1H-indazol-5-yl)-3-(tetrahydrofuran-3-yl)-5,6-dihydroimidazo[1,5-a]pyrazin-7(8H)-yl)ethan-1-one]
9 | 6 | 9110 | CNC(=O)N1CCn2c(C3CC3)nc(-c3cccc4nc(N5CCOCC5)c(C#N)cc34)c2C1 [Example 24, 1-(3-Cyano-2-morpholinoquinolin-5-yl)-3-cyclopropyl-N-methyl-5,6-dihydroimidazo[1,5-a]pyrazine-7(8H)-carboxamide]
10 | 5 | 19000 | CNC(=O)N1CCn2c(C3CCC(F)(F)CC3)nc(-c3cccc4nc(-c5cnn(C)c5)c(C(F)F)cc34)c2C1 [Example 59, 3-(4,4-difluorocyclohexyl)-1-(3-(difluoromethyl)-2-(1-methyl-1H-pyrazol-4-yl)quinolin-5-yl)-N-methyl-5,6-dihydroimidazo[1,5-a]pyrazine-7(8H)-carboxamide]
11 | 5 | 13500 | CNC(=O)N1CCn2c(C3CC3)nc(-c3cccc4nc(-c5cnn(C)c5)c(C(F)(F)F)cc34)c2C1 [Example 62, 3-cyclopropyl-N-methyl-1-(2-(1-methyl-1H-pyrazol-4-yl)-3-(trifluoromethyl)quinolin-5-yl)-5,6-dihydroimidazo[1,5-a]pyrazine-7(8H)-carboxamide]
